The record followed here is PMC8931250, “A SURF4-to-proteoglycan relay mechanism that mediates the sorting and secretion of a tagged variant of sonic hedgehog” (Proceedings of the National Academy of Sciences of the …, 2022).

Ends that are not written are not given here.

The target in this test is T1, GST-SURF4^49-60 (Homo sapiens, UniProt O15260).
T1 construct: SURF4 (49-60) in the same buffer was in the calorimetric cell; made in house; host or cells: Escherichia coli
As to the kind of experiment: Isothermal titration calorimetry, CW peptide vs GST-SURF4(49-60). It counts as binding. The note with it: ITC (PEAQ-ITC); 500 µM CW peptide into 50 µM GST-SURF4 (49-60); 10 mM PBS, 0.5 mM HEPES, 6.3 mM sorbitol, 1.75 mM KOAc, 25 µM Mg(OAc)2, 25 µM BSA, 0.003% Triton, pH 7.2; one set of site model; read-out: Kd of CW peptides for GST-SURF4^49-60. The text has this:
To measure a direct interaction, we immobilized the first luminal loop of SURF4 (SEQRDYIDTTWNC, referred to as SURF4 luminal peptides) on beads and then performed pull down analysis using purified GST and Shh^25-49-GST as prey (Fig. 3H). […] As an additional test, we performed pull down analysis using peptides corresponding to the CW motif (KRRHPKKC, referred to as CW peptides) as bait and purified GST-SURF4^49-60 as prey (Fig. 3J). […] We then immobilized peptides corresponding to the first intracellular loop of Frizzled6 (VRRFRYPERPC, referred to as RRFR) ([27]) on beads.
The samples were centrifuged at 55,000 rpm in a TLS55 rotor in a Beckman ultracentrifuge for 2 hr at 4 °C.
After centrifugation, fractions were collected from the top to the bottom of the tube, and the top fraction was analyzed by SDS-PAGE and immunoblotting.
Isothermal titration calorimetry (ITC)
We utilized a commercial isothermal titration calorimeter (PEAQ-ITC system, MicroCal, Malvern Panalytical, United Kingdom) to perform titration experiments. In these experiments, a 500 µM solution of CW peptide in a diluted binding buffer (10 mM PBS, 0.5 mM HEPES, 6.3 mM sorbitol, 1.75 mM KOAc, 25 µM Mg(OAc)2 , 25 µM BSA, 0.003% Triton, pH 7.2) was loaded into the syringe of the ITC instrument and a 50 µM solution of GST -SURF4 (49-60) in the same buffer was in the calorimetric cell. […]
On the technique in general: ITC needs no label: the signal is the heat of the interaction.

On to KRRHPKKC [CW peptides], for which the Kd was determined as 2350 ± 90 nM.

The Kd is the equilibrium constant for the complex coming apart.
